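Method: 48-hour compound exposure of cells in 96-well plates, five concentrations, linear interpolation of endpoints. Abbreviation: GI50, concentration required for 50% inhibition of growth. The concentration for full growth arrest is given as TGI.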
Legend:
Assay in all cases: NCI-60 cell line screen, 48 h
UACC-62 melanoma = system: UACC-62 melanoma
SNB-75 CNS = system: SNB-75 CNS
SF-295 CNS = system: SF-295 CNS
SK-MEL-5 melanoma = system: SK-MEL-5 melanoma
HCT-116 colon = system: HCT-116 colon
CCRF-CEM leukemia = system: CCRF-CEM leukemia
RPMI-8226 leukemia = system: RPMI-8226 leukemia
SR leukemia = system: SR leukemia
SK-OV-3 ovarian = system: SK-OV-3 ovarian
HL-60(TB) leukemia = system: HL-60(TB) leukemia

| Compound | GI50 (UACC-62 melanoma) | TGI (UACC-62 melanoma) | GI50 (SNB-75 CNS) | TGI (SNB-75 CNS) | GI50 (SF-295 CNS) | TGI (SF-295 CNS) | GI50 (SK-MEL-5 melanoma) | TGI (SK-MEL-5 melanoma) | GI50 (HCT-116 colon) | TGI (HCT-116 colon) | GI50 (CCRF-CEM leukemia) | TGI (CCRF-CEM leukemia) | GI50 (RPMI-8226 leukemia) | TGI (RPMI-8226 leukemia) | GI50 (SR leukemia) | TGI (SR leukemia) | GI50 (SK-OV-3 ovarian) | TGI (SK-OV-3 ovarian) | GI50 (HL-60(TB) leukemia) | TGI (HL-60(TB) leukemia) |
| --- | --- | --- | --- | --- | --- | --- | --- | --- | --- | --- | --- | --- | --- | --- | --- | --- | --- | --- | --- | --- |
| C/C(=C\c1ccn(-c2ccc(N)cc2)n1)[C@@H]1C[C@@H]2O[C@]2(C)CCC[C@H](C)[C@H](O)[C@@H](C)C(=O)C(C)(C)[C@@H](O)CC(=O)O1 | 0.157 µM | > 50 µM | 0.00754 µM | 0.233 µM | 0.0721 µM | > 50 µM | 0.0308 µM | > 50 µM | 0.0189 µM | > 50 µM | 0.0338 µM | > 50 µM | 0.0214 µM | > 50 µM | 0.027 µM | > 50 µM | 0.226 µM | > 50 µM | 0.0437 µM | > 50 µM |
| CSC(=S)NNC(=O)c1ccncc1 | – | 31.1 µM | – | 65.7 µM | – | 46.9 µM | – | 62.6 µM | – | 38.3 µM | – | 43.1 µM | – | 47.8 µM | – | 47.3 µM | – | 96.2 µM | – | 39.9 µM |
| COc1cccc2c1c1nc3cc(C)c(C)cc3nc1n2CCN(C)C | 1.7 µM | 3.37 µM | 1.1 µM | 5.56 µM | 2.17 µM | 7.62 µM | 1.64 µM | 3.01 µM | 0.426 µM | 10.3 µM | 1.81 µM | 7.3 µM | 1.16 µM | 4.29 µM | 0.452 µM | 8.7 µM | 2.02 µM | 12.2 µM | 2.09 µM | 6.57 µM |
| CCOC(=O)c1cc2ncccc2c2ccccc12 | – | > 100 µM | – | > 100 µM | – | > 100 µM | – | > 100 µM | – | > 100 µM | – | > 100 µM | – | > 100 µM | – | > 100 µM | – | > 100 µM | – | > 100 µM |
| O=C(/C=C\Sc1nccc(C(F)(F)F)n1)c1ccc(Br)cc1 | 23.6 µM | 60.7 µM | 28.9 µM | > 100 µM | > 100 µM | > 100 µM | 37.9 µM | > 100 µM | 12.8 µM | 25.5 µM | 3.68 µM | 11.9 µM | 2.24 µM | 4.63 µM | 11.1 µM | 26.3 µM | > 100 µM | > 100 µM | 0.84 µM | 20.8 µM |
| COc1cnc2c(c1)C(=O)c1c-2n(CCCN2CCN(C)CC2)c(=O)c2cc(Cl)ccc12 | – | – | 0.932 µM | 17.6 µM | 0.674 µM | 20.5 µM | 11 µM | 25.2 µM | 0.982 µM | > 100 µM | 0.527 µM | 20.1 µM | 13.9 µM | 45.1 µM | 0.584 µM | 27.3 µM | 10.1 µM | 36.4 µM | 18 µM | 42.4 µM |
| COC(=O)Nc1nc2ccc(Oc3ccc(NC(=O)Nc4cccc(Cl)c4)cc3)cc2[nH]1 | 0.712 µM | 4.78 µM | 0.689 µM | 8.36 µM | 0.777 µM | 6.59 µM | 0.492 µM | 3.66 µM | 1.09 µM | 5.29 µM | 0.838 µM | > 15 µM | 1.64 µM | > 25 µM | 0.144 µM | > 14.3 µM | 1.03 µM | 4.62 µM | 0.859 µM | 2.92 µM |
| C/C(=C\c1c[nH]c2ccccc12)[N+](=O)[O-] | 4.04 µM | 15.9 µM | 1.89 µM | 6.93 µM | 7.97 µM | 22.7 µM | 5.8 µM | 19.2 µM | 2.37 µM | 8.08 µM | 1.62 µM | 4.2 µM | 1.81 µM | 4.17 µM | 1.15 µM | 4.25 µM | 11.4 µM | 23.7 µM | 2.3 µM | 6.46 µM |
| CO[C@H]1CC[C@@]2(C)C(=CC[C@H]3[C@@H]4C[C@H](O)C[C@@]4(C)CC[C@@H]32)C1 | 3.88 µM | 16.9 µM | 3.41 µM | 23 µM | 2.45 µM | 8.02 µM | 3.23 µM | 13.1 µM | 4.88 µM | 18.1 µM | 3.05 µM | 19.1 µM | 3.68 µM | 54.2 µM | 2.72 µM | 14.9 µM | 4.46 µM | 49 µM | 3.69 µM | 66.7 µM |
| CC(C)=CCC/C(C)=C/CC/C(=C/COP(=O)(OCc1ccc([N+](=O)[O-])o1)N(C)CCCCCl)C(C)(C)C (stereo not drawn) | 9.21 µM | 23.5 µM | 15.6 µM | 40 µM | – | – | 3.29 µM | 11.4 µM | 2.04 µM | 11.8 µM | 0.0571 µM | 27.4 µM | 1.45 µM | 12.3 µM | 0.128 µM | > 100 µM | 18.1 µM | 38.7 µM | 4.18 µM | > 100 µM |
| COC(=O)C1=CC2OC1(C)C1(CC1)C2=O (stereo not drawn) | – | – | – | 50 µM | – | 34.4 µM | – | – | – | 27.8 µM | – | 23.2 µM | – | 30.3 µM | – | 34.6 µM | – | > 100 µM | – | 16.1 µM |
| CCOC(=O)C1C(c2ccc([N+](=O)[O-])cc2)NC(c2ccc([N+](=O)[O-])cc2)C(C(=O)OC)S1(=O)=O (stereo not drawn) | – | > 100 µM | – | > 100 µM | – | > 100 µM | – | – | – | > 100 µM | – | > 100 µM | – | > 100 µM | – | > 100 µM | – | > 100 µM | – | > 100 µM |

Reference: PubChem BioAssay (NCI)
